Data as given in US8480995B2, “Use of sodium selenosulfate for supplementing selenium and enhancing the therapeutic efficacy of chemotherapy agents, and a rapid process for preparing sodium selenosulfate” (University of Science and Technology of China, priority 2007, dated 2013).

How the values were obtained:
[1] = system: hepatoma H22 cell; test: Treatment of mice bearing H22 ascites with cisplatin with or without sodium selenosulfate; assay type: in vivo; conditions: for Survival time of dead mice: mean±SD
Protocol: Animals: Se-sufficient male Kunming mice (body weight: 20-23 g) were purchased from Shanghai Laboratory Animal Center, Chinese Academy of Sciences. Drugs Administration: 48 mice were divided randomly into 6 groups with 8 mice in each group. Each mouse was inoculated intraperitoneally with hepatoma H22 cell suspension (20×10^6 cells). The groups were classified into 3 cisplatin groups, 2 cisplatin plus Se-supplementing groups (the groups administrated with 8 and 10 mg/kg doses of cisplatin were treated with 0.6 and 0.75 mg Se/kg doses of sodium selenosulfate, respectively) and 1 control group in terms of the administration doses (5, 8 and 10 mg/kg) of cisplatin. The experiments were carried out with one week as a cycle. The experiments with cisplatin doses of 5 and 8 mg/kg were carried out for total 4 cycles, and those with cisplatin dose of 10 mg/kg were performed for total 3 cycles. From the first day of each cycle, the mice in cisplatin groups was intraperitoneally injected with the corresponding concentrations of cisplatin, and the mice in cisplatin plus Se-supplementing groups were injected intraperitoneally with the corresponding sodium selenosulfate doses of 0.6 and 0.75 mg Se/kg respectively 4 hours before the intraperitoneal injection of cisplatin. The treatment was performed for 5 consecutive days. The first cisplatin chemotherapy started at 48 hours after the inoculation of tumor cells. The animal status was recorded and the development of malignant ascites was observed. Statistical analysis: Data were expressed as mean±SD. The differences between the groups were examined using ANOVA. A p value less than 0.05 was considered statistically significant.

[2] = system: glutathione peroxidase (GPx); test: Se-supplementing effect in Se-deficient mice: GPx activity in serum, liver and kidney; assay type: in vivo; conditions: mean±SD; for Liver GPx: relative to control 1.00 (control 88.5 unit/mg protein); for Kidney GPx: relative to control 1.00 (control 142.8 unit/mg protein); for Serum GPx: relative to control 1.00 (control 525.5 unit/mL serum)
Protocol: (§1) It has been reported that high doses of sodium selenite can reduce the symptom of severely ill patient and enhance the therapeutic efficacy of chemotherapy agents for cancers. It remains unknown whether there are differences regarding the Se-supplementing effect between sodium selenosulfate and sodium selenite at pharmacologic doses. In this example, Se-deficient mice were intraperitoneally injected with sodium selenite and sodium selenosulfate at doses of 0.5 and 1 mg Se/kg for a week. The enzyme activity and selenium were measured to compare the Se-supplementing effect between the two selenium compounds.
(§2) Animals: Se-deficient male Kunming mice (body weight: 20-23 g) were purchased from the animal center of Anhui Medical University. Drugs Administration: 35 mice were randomly divided into 5 groups with 7 mice in each group. The mice in the control group were injected with normal saline, and those in other groups were injected respectively with different doses of sodium selenite and sodium selenosulfate (0.5 and 1 mg Se/kg) for 7 consecutive days. Biochemical parameters: 24 hours after the last Se administration, blood was sampled from ophthalmic veins to obtain serum by centrifugation, and then the Se form and glutathione peroxidase (GPx) activity therein were determined. Meanwhile, liver and kidney were excised and stored at −30° C., and a part of them were used to determine Se. A part of livers and kidneys were homogenized and centrifuged to obtain supernatant, and then GPx activity and glutathione S-transferase (GST) activity in livers were determined. Statistical analysis: Data were expressed as mean±SD. The differences between the groups were examined using ANOVA. A p value less than 0.05 was considered statistically significant.

[3] = system: glutathione S-transferase (GST); test: Se-supplementing effect in Se-deficient mice: GST activity in liver; assay type: in vivo; conditions: relative to control 1.00 (control 4071.4 unit/mg protein), mean±SD
Protocol: as §1, §2

[4] = system: Se-sufficient male Kunming mice; test: Toxicity to normal tissues in Se-sufficient mice, i.p. once daily for 14 days; assay type: in vivo; conditions: for mortality: FIG. 3; for hepatic tissue slices with hydropic or fatty degeneration / serum ALT and AST activity (hepatotoxicity): 2 mg Se/kg, 14 days; for hepatic tissue slices with hydropic or fatty degeneration: HE stain, selenite moderate (FIG. 5), selenosulfate slight (FIG. 6); for serum ALT and AST activity (hepatotoxicity): FIG. 4; for suppression of the growth of the mice (body weight): 2 and 3 mg Se/kg, same Se levels compared, FIG. 2
Protocol: Animals: Se-sufficient male Kunming mice (body weight: 23±1 g) were purchased from the Shanghai Laboratory Animal Center, Chinese Academy of Sciences. Drugs Administration: 50 mice were randomly divided into 5 groups with 10 mice in each group. The mice in the control group were injected intraperitoneally with normal saline, and the other groups were injected with sodium selenite (2 groups) and sodium selenosulfate (2 groups) respectively at 2 and 3 mg Se/kg once daily for 14 consecutive days. The mice in low dosage groups were sacrificed 24 hours after the last Se administration. Animal status: The body weight and dead status of the mice were recorded every day. Biochemical parameters: Blood was sampled from ophthalmic veins for determining serum ALT activity and AST activity. Pathology: Liver was excised for the determination. The slice was dyed by using HE. Statistical analysis: Data were expressed as mean±SD. The differences between the groups were examined using ANOVA. A p value less than 0.05 was considered statistically significant.

[5] = Se-supplementing effect in Se-deficient mice: Se level in serum, liver and kidney; assay type: in vivo; conditions: mean±SD; for Serum Se: relative to control 1.00 (control 0.07 μg/mL serum); for Liver Se: relative to control 1.00 (control 0.15 μg/g liver); for Kidney Se: relative to control 1.00 (control 0.44 μg/g kidney)
Protocol: as §1, §2

[6] = system: Human hepatoma cells (HepG2); test: Cell killing assay (MTT, 72 hours); assay type: cell-based; conditions: FIG. 7A
Protocol: (§3) Cell culture: Human hepatoma cells (HepG2) and human colorectal cancer cells (CaCo2) were cultivated at 37° C. under 5% CO2 by using EMEM cell culture media containing 10% Fetal Bovine serum. Cell killing assay: the tumor cells were added into a 96-well plate with a density of 5000 cells/well for 24 hours, and then the culture media were changed to those with different Se concentrations. At 72 hours, the cell numbers were determined by MTT protocol. Each treatment was conducted in 3 parallels, and the data were expressed by percent relative to cell numbers when no Se was added. Cell proliferation assay: HepG2 or CaCo2 cells were added into a 96-well plate with a density of 1000 cells/well for 24 hours, and then the culture media were changed to those with 12.5 μM Se. The day was defined as day 0. The cell numbers were determined by MTT protocol on day 0, 2, 4 and 6, respectively. Each treatment was conducted with 8 parallels, and the data were expressed with percent relative to the cell numbers on day 0. MTT assay: Each well was added with 20 μL MTT (5 mg/mL) 4 hours prior to the end of culture. After the culture was ended, the supernatant was discarded, and the formazan particles were dissolved in HCl-isopropanol (10 μL/well). The readings were recorded at 595 nm on a microplate reader.

[7] = system: Human hepatoma cells (HepG2); test: Cell proliferation assay (MTT, day 0-6); assay type: cell-based; conditions: 12.5 μM Se, day 0-6, MTT; FIG. 7B
Protocol: as §3

[8] = cisplatin 5 mg/kg i.p., 4 cycles
[9] = cisplatin 8 mg/kg i.p., 4 cycles
[10] = cisplatin 10 mg/kg i.p., 3 cycles
[11] = 2 mg Se/kg i.p. once daily 14 days
[12] = 3 mg Se/kg i.p. once daily 14 days

SMILES | Liver GPx ([2]; 0.5 mg/kg i.p. 7 days) | Kidney GPx ([2]; 0.5 mg/kg i.p. 7 days) | Serum GPx ([2]; 0.5 mg/kg i.p. 7 days) | Liver GPx ([2]; 1.0 mg/kg i.p. 7 days) | Kidney GPx ([2]; 1.0 mg/kg i.p. 7 days) | Serum GPx ([2]; 1.0 mg/kg i.p. 7 days) | Liver GST ([3]; 0.5 mg/kg i.p. 7 days) | Liver GST ([3]; 1.0 mg/kg i.p. 7 days) | mortality [4, 11] | hepatic tissue slices with hydropic or fatty degeneration [4] | serum ALT and AST activity (hepatotoxicity) [4] | mortality [4, 12] [%] | suppression of the growth of the mice (body weight) [4] | also measured
N.N.[Cl][Pt][Cl] [Cisplatin, cisplatin] | – | – | – | – | – | – | – | – | – | – | – | – | – | suppression of the development of malignant ascites ([1]; cisplatin 5 mg/kg): could not suppress the rapid development of malignant ascites; Cure rate [1, 8]: 0%; Death rate [1, 8]: 100%; Survival time of dead mice [1, 8]: 20 ± 7 days; Cure rate [1, 9]: 0%; Death rate [1, 9]: 100%; Survival time of dead mice [1, 9]: 31 ± 12 days; Cure rate [1, 10]: 25%; Death rate [1, 10]: 75%; Survival time of dead mice [1, 10]: 21 ± 9 days; suppression of the development of malignant ascites ([1]; cisplatin 8 and 10 mg/kg): could efficiently suppress the development of malignant ascites
O=[Se](O)O [Sodium selenite, sodium selenite] | 19.8 ± 0.08 | 8.74 ± 0.14 | 2.97 ± 0.37 | 22.2 ± 0.10 | 10.2 ± 0.14 | 4.18 ± 0.26 | 1.64 ± 0.23 | 2.44 ± 0.14 | 20% | up to 80% | made ALT and AST increased significantly | 90 | significantly stronger than that of sodium selenosulfate | –
O=S(=O)([O-])[Se-].[Na+].[Na+] [Sodium selenosulfate, sodium selenosulfate] | 18.8 ± 0.19 | 7.74 ± 0.19 | 3.10 ± 0.25 | 22.2 ± 0.16 | 9.09 ± 0.18 | 4.41 ± 0.24 | 1.47 ± 0.29 | 2.69 ± 0.23 | all the mice treated with sodium selenosulfate survived | 20% | such phenomenon was not found | 20 | could suppress the growth of the mice as compared with the control | Serum Se ([5]; 0.5 mg/kg i.p. 7 days): 5.69 ± 0.13; Liver Se ([5]; 0.5 mg/kg i.p. 7 days): 11.2 ± 0.09; Kidney Se ([5]; 0.5 mg/kg i.p. 7 days): 2.85 ± 0.10; Serum Se ([5]; 1.0 mg/kg i.p. 7 days): 5.24 ± 0.39; Liver Se ([5]; 1.0 mg/kg i.p. 7 days): 15.2 ± 0.09; Kidney Se ([5]; 1.0 mg/kg i.p. 7 days): 3.90 ± 0.14; killing effect on HepG2 cells [6]: dose-dependent profile on killing HepG2 cells at levels of 6-18 μM; suppression of proliferation of HepG2 cells [7]: fully suppressed the proliferation of HepG2 cells
